Measured values as given in patent US8840898B2, “Immunoconjugates targeting syndecan-1 expressing cells and use thereof” (priority 2004, dated 2014).

What was measured:
[1] = cited from earlier work
[2] = cited from earlier work; remark: listed apart in the source
[3] = tested on: CD138+ MM cell lines MM-1S, MM-1R and Ocy-My5; assay: Colorimetric survival assay (MTT), CD138+ cells; type: cell-based, human; details: 1-50 nM or equimolar concentrations, up to 96 h
Description: (§1) Survival of CD138^+ and CD138^− cells upon administration of B-B4-DM1, B-B4 and DM1 was examined using a tetrazolium colorimetric assay (CellTiter 96® Non-Radioactive Cell Proliferation Assay; Promega, Wis.), as previously described (Mossmann, 1983). Cells (1×10^4) were plated in 24-well plates in 1 ml RPMI complete medium and then treated as indicated. At the end of each treatment, cells were incubated with 150 μl of Dye Solution and then incubated for 4 h at 37° C. A solubilization/stop solution was then added to each well under vigorous pipetting to dissolve the formazan crystals. Absorbance was measured at 570 nm, and cell viability was estimated as percentage of untreated controls. All experiments were repeated 3 times, and each experimental condition was repeated in triplicate wells in each experiment. Data reported are average values±SD of 3 representative experiments.
(§2) The effects of B-B4-DM1 on survival of CD138^+ (MM-1S, MM-1R, Ocy-My5) and CD138^− cells (SUDHL-4 and WSU-WM) were determined using an MTT assay. […] Cell survival was measured using an MTT assay. […] CD138^+ MM cell lines MM-1S, MM-1R and Ocy-My5 were evaluated as well as CD138^− cell lines including the lymphoma cell line SUDHL4 and the Waldestrom's Macroglobulinemia cell line WSU-WM.

[4] = tested on: CD138+ Ocy-My5 MM cells adherent to BMSC; assay: Cell proliferation assay ([3H]-thymidine) on cells adherent to BMSC, Ocy-My5; type: cell-based, human; details: 10 nM, 72 h treatment
Description: (§3) The effect of B-B4-DM1 on cell proliferation was measured by the extent of [^3H]-thymidine (NEN Life Science Products, Boston, Mass.) incorporation. Cells (2×10^4 cells/well) were incubated in 96-well culture plates in the presence of 70%-80% confluent BMSCs at 37° C. with or without a test-agent (in triplicate wells). [^3H]-thymidine (0.5 μCi) was then added to each well for the last 8 h. Cells were harvested onto glass filters with an automatic cell harvester (Cambridge Technology, Cambridge, Mass.) and counted using a Micro-Beta® Trilux counter (Wallac, Gaithersburgh, Md.).
(§4) Since adhesion of MM cells to BMSC (bone marrow stromal cells) protects MM cells against drug-induced apoptosis, the effect of B-B4-DM1 on proliferation of CD138^+ (Ocy-My5) MM and CD138^− (SUDHL-4) LB cells adherent to BMSC was evaluated.
(§5) Ocy-My5 (FIG. 3A) or SUDHL-4 (FIG. 3B) cells (2×10^4) were seeded on 70%-80% confluent BMSC for 24 h. Cell proliferation was measured by [^3H]thymidine incorporation following 72 h treatment with B-B4-DM1 (10 nM). Values represent the mean [^3H]-TdR incorporation (cpm) of triplicate cultures.

CD138+ Ocy-My5 MM cells = assay: Detection of apoptosis (Annexin V / PI); type: cell-based, human; details: 10 nM, 48 h exposure
Description: Dual staining with FITC-labeled Annexin V and propidium iodide (PI) was carried out to detect induction of apoptotic cell death by B-B4-DM1. After treatment of 1×10^6 tumor cells for 48 h, cells were washed with PBS and re-suspended in 100 µl of HEPES buffer containing Annexin V-FITC and propidium iodide (PI) (Annexin V-FLUOS staining kit; Roche Diagnostic, Indianapolis, Ind.). Following 15 min incubation at room temperature, cells were analyzed using a Coulter Epics XL flow cytometer for the presence of an Annexin V-FITC-positive/PI-negative apoptotic cell population.
[…] Apoptotic cell death was then measured by staining with annexin V and PI and flow cytometric analysis.
Percentages of stained cells are reported in each quadrant. […] Ocy-My5 MM cells were exposed to B-B4 mAb (13.3 μg/ml) or B-B4-DM1 (10 nM) for 48 h, labeled with PI, and analyzed using flow cytometry. Percentages of cells in the S-phase (S) and G2/M phase (G2) are indicated.

[5] = tested on: CD138- SUDHL-4 cells adherent to BMSC; assay: Cell proliferation assay ([3H]-thymidine) on cells adherent to BMSC, SUDHL-4; type: cell-based, human; details: SUDHL-4 on BMSC; 10 nM; 72 h treatment
Description: as §3, §4, §5

[6] = tested on: CD138- cell lines SUDHL4 and WSU-WM; assay: Colorimetric survival assay (MTT), CD138- cells; type: cell-based, human; details: 1-50 nM or equimolar concentrations, up to 96 h
Description: as §1, §2

SMILES | Adverse effects in clinical trials [1] | Cytotoxicity relative to anti-cancer drugs in clinical use that affect tubulin polymerization (Vinca alkaloids, taxol) ([2]; higher) | Cell survival / growth (MTT assay) [3] | Cell proliferation ([3H]thymidine incorporation) [4] | annexin V+/PI- and annexin V+/PI+ fractions (apoptotic cell death) (CD138+ Ocy-My5 MM cells) | Cytotoxicity relative to maytansine ([2]; more cytotoxic) | Cell proliferation ([3H]thymidine incorporation) [5] | Cell survival / growth (MTT assay) [6]
COc1cc2cc(c1Cl)N(C)C(=O)C[C@H](OC(=O)[C@H](C)N(C)C(C)=O)[C@]1(C)O[C@H]1[C@H](C)[C@@H]1C[C@@](O)(NC(=O)O1)[C@H](OC)/C=C/C=C(\C)C2 [maytansine] | serious adverse effects on the central nervous system and gastrointestinal system | 200-1000 fold | – | – | – | – | – | –
COc1cc2cc(c1Cl)N(C)C(=O)C[C@H](OC(=O)[C@H](C)N(C)C(=O)CCS)[C@]1(C)O[C@H]1[C@H](C)[C@@H]1C[C@@](O)(NC(=O)O1)[C@H](OC)/C=C/C=C(\C)C2 [DM1, N^2-deacetyl-N^2-(3-mercapto-1-oxopropyl)-maytansine] | – | – | equally and highly cytotoxic | cytotoxic to both cell lines | significant increase | 3- to 10 fold | cytotoxic to both cell lines | equally and highly cytotoxic
